Values of other authors in article PMC9377340 (Chemical biology & drug design, 2022).
Where “and” joins values, the source holds several entries; their conditions need not be identical. Equal values may be shown once.

Molecular target: human FXIa (Homo sapiens, UniProt P03951)
Settings: ref Kar et al., 2020

human FXIa, sequence (P03951 388-625 limits assumed): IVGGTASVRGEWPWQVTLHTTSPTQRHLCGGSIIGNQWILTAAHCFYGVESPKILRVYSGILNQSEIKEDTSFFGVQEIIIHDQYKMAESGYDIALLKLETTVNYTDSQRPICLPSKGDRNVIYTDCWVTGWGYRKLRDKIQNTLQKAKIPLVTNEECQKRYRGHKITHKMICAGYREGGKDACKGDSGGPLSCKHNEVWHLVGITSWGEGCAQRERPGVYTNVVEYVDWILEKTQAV
human FXIa, sequence (P03951 19-387 limits assumed): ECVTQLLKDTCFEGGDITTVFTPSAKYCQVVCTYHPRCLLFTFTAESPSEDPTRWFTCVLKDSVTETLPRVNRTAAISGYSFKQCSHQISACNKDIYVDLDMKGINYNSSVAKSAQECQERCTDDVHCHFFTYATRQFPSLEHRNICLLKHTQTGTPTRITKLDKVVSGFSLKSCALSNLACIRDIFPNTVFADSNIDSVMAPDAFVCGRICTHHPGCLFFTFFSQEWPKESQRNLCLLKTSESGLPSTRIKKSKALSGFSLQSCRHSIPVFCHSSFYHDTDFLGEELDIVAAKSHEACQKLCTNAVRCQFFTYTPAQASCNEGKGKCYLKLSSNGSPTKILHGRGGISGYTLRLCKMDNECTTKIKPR

What does the source list for benzyl tetraphosphonate [BTP]?
IC50 (read-out: IC50, FXIa inhibition): ~7.4 µM and 7.4 µM; HS (Hill slope), FXIa inhibition: 1.9 ± 0.5; ΔY (efficacy), FXIa inhibition: 68.0 ± 3.7%
